Converted amounts (≈) assume the structure as drawn. A value given as a limit tells only on which side of the number the result lay.

The values below come from patent US11802107B2, “Compounds and methods of use” (Signum Biosciences, Inc., priority 2017, dated 2023).

For experiment [1], the system named is IL-6. Put plainly: Nickel (Ni2+)-induced IL-6 on HDMECs. The format is cell-based. The conditions noted are these: Homo sapiens; HDMEC, 1 mM NiSO4, 6 hours, ELISA; read-out: Nickel-HDMECs IL-6 Protein IC50. As to the method:
Human Dermal Microvascular Endothelial cells (HDMECs) from human skin tissues were obtained from Sciencell, Inc. (Cat No. 2000). Cells were cultured in 96-well plates for 24 hours with ECM media (Cat No. 1001) supplemented with endothelial cell growth supplement (Cat No. 50015) and 5% v/v FBS. On Day 2, media was removed and replaced with supplement-depleted medium for 24 hours. On Day 3, media was removed and cells were pre-treated with test materials (≤10 μM) for 2 hours and later co-treated with test materials and 1 mM NiSO4 (Sigma-Aldrich, Cat No. 227676) for 6 hours at 37° C. and 5% CO2. After incubation, cell media supernatants were harvested and used to measure IL-6 levels using ELISA kit (BD Biosciences® #555220). Results were represented as percent of inhibition relative to untreated and NiSO4-only treated cells. IC50 values were determined by non-linear regression analysis using the four-parameter logistic equation.
(ELISA stands for enzyme-linked immunosorbent assay.)

For experiment [2], the system named is IL-8. Put plainly: TPA-induced IL-8 on NHEKs. The format is cell-based. The conditions noted are these: Homo sapiens; NHEK, TPA 5 ng/mL, 24 hours, ELISA. As to the method: Normal human epidermal keratinocytes (NHEKs) from neonatal donors were obtained from Thermo-Fisher (Cat No. C-001-5C). Cells were cultured in 96-well plates for 24 hours with EpiLife media (Cat No. MEPI500CA) supplemented with keratinocytes growth supplement (Cat No. S0015). On Day 2, media was removed and replaced with supplement-depleted medium for 24 hours. On Day 3, media was removed and cells were pre-treated with test materials (≤1 μM) for 2 hours and later co-treated with test materials and TPA (Sigma Aldrich, Cat No. P8139) at 5 ng/mL and incubated for 24 hours at 37° C. and 5% CO2. After incubation, cell media supernatants were harvested and used to measure pro-inflammatory cytokine levels (IL-8) using ELISA kit (BD Biosciences® #555244). Results were represented as percent of inhibition relative to untreated and TPA-only treated cells. IC50 values were determined by non-linear regression analysis using the four-parameter logistic equation.

Experiment [3] deals with IL-23. Put plainly: LPS/IFNγ-induced IL-23 on CD14+ monocytes. It counts as cell-based. As to conditions: Homo sapiens, Monocyte, 50 μg/mL LPS + 5 μg/mL IFNγ, 24 hours, ELISA. As to the method: Cryopreserved human peripheral blood monocytes cells (CD14+) from healthy adult donors were obtained from Zen Bio, Inc (Cat No. SER-CD4-F). Cells were cultured in 96-well plates with lymphocyte media (Cat No. LYMPH-1) and were pre-treated with test materials (≤100 μM) for 2 hours and later co-treated with test materials and 50 μg/mL LPS, 5 μg/mL IFNγ (Sigma Aldrich, Cat No. L4321, SRP3058) and incubated for 24 hours at 37° C. and 5% CO2. After incubation, cell media supernatants were harvested and used to measure cytokine levels (IL-23) using ELISA kits (R&D Systems® #DY1290). Results were represented as percent of inhibition relative to untreated and […] treated cells. IC50 values were determined by non-linear regression analysis using the four-parameter logistic equation.

The test system of experiment [4] is IFNγ. As to the kind of experiment: PHA-induced IFNγ on PBMCs. It counts as cell-based. The conditions noted are these: Homo sapiens, PBMC, PHA-L 20 μg/mL, 24 hours, ELISA. The procedure:
(§1) Cryopreserved human Peripheral Blood Mononuclear cells (PBMCs) from healthy adult donors were obtained from Zen Bio, Inc (Cat No. SER-PBMC-F). Cells were cultured in 96-well plates with lymphocyte media (Cat No. LYMPH-1) and were pre-treated with test materials (≤100 μM) for 2 hours and later co-treated with test materials and PHA-L (Sigma Aldrich, Cat No. 11249738001) at 20 μg/mL and incubated for 24 hours at 37° C. and 5% CO2. After incubation, cell media supernatants were harvested and used to measure cytokine levels (IL-2, IFNγ) using ELISA kits (R&D Systems® #DY202, #DY285). Results were represented as percent of inhibition relative to untreated and PHA-only treated cells. IC50 values were determined by non-linear regression analysis using the four-parameter logistic equation.

For experiment [5], the system named is IL-2. Put plainly: PHA-induced IL-2 on PBMCs. As to conditions: Homo sapiens, PBMC, PHA-L 20 μg/mL, 24 hours, ELISA. The format is cell-based. As to the method: as §1
The subject of experiment [6] is P. acnes (ATCC 6919). As to the kind of experiment: Minimal inhibitory concentration (MIC) against P. acnes. The conditions noted are these: Cutibacterium acnes, ATCC6919, 72 h, P. acnes ATCC 6919, 10^6 CFU/mL, read-out: MIC. The format is cell-based, Propionibacterium acnes. The procedure:
To determine minimal inhibitory concentration (MIC), reagents were dissolved in vehicle (5% v/v) and then added to bacteria suspension. P. acnes (ATCC® 6919TM) at 10^6 CFU/mL was incubated with test materials at the concentrations of two-fold serial dilution (0.25-500 μg/mL) and incubated for 72 hours (P. acnes).

In experiment [7] the test system is IL-8. Put plainly: P. acnes-induced IL-8 protein on human PBMCs (ELISA). It counts as cell-based. The conditions noted are these: PBMCs + live P. acnes 1:1, test material 30 PM, 24 hours. As to the method:
Cryopreserved human Peripheral Blood Mononuclear cells (PBMCs) from healthy adult donors were obtained from Zen Bio, Inc (Cat No. SER-PBMC-F). Cells were cultured in 12-well plates with lymphocyte media (Cat No. LYMPH-1) and incubated with test materials ([…]) and live P. acnes (ATCC® 6919TM) at 1:1 PBMC: P. acnes bacteria ratio for 24 hours at 37° C. and 5% CO2. After incubation, cell media supernatants were harvested and used to measure pro-inflammatory cytokine levels (IL-8, TNF-α, IL-1b, IL-17) using ELISA kits (BD Biosciences® #557966, #555212, #555244; R&D Systems® #DY317). Total RNA was extracted from cells using the RNAqueous® kit (Ambion®; Cat No. 1912) and cDNA was obtained using the High Capacity RNA-to-cDNA kit (Applied Biosystems®; Cat No. 4387406). Quantitative PCR (qPCR) was performed using the TaqMan® Fast Advanced Master Mix (Applied Biosystems®; Cat No. 4444556) and specific TaqMan®-probes human gene primers CXCL8 (IL-8), IL1B (IL-1b), TNF (TNF-α), IL17A (IL-17A) and GAPDH to calculate the relative gene fold expression change per treatment. Gene expression analysis was performed using the comparative Ct method (also known as the 2-[delta][delta]Ct) approach by comparing the Ct values of P. acnes-only treated cells with the untreated samples and normalized to GAPDH gene expression as endogenous housekeeping gene.

As usually defined, the IC50 is the concentration at which inhibition is half-maximal. Turning to `N#Cc1ccc(Oc2ccc3c(c2)COB3O)cc1` [AN2728, reference compound], the IC50 came to 100000 nM in experiment [1]; 20 nM in experiment [2]; 650 nM in experiment [3]; 300 nM in experiment [4]; 40 nM in experiment [5].

For orientation: MIC means the smallest concentration in the dilution series that meets the test's criterion for growth inhibition. As for `C/C(=C\CSCC(NC(=O)NCC(=O)O)C(=O)O)CCCC(C)CCCC(C)CCCC(C)C` (stereo not drawn) [A], the IC50 in experiment [1] is 30 nM. The MIC in experiment [6] worked out at 10 µg/mL (≈ 20 µM).

On to `C/C(=C\CSC[C@H](NC(=O)N(C)CC(=O)O)C(=O)O)CCCC(C)CCCC(C)CCCC(C)C` (stereo partly drawn) [Compound C, (2R)-2-{[(carboxymethyl)(methyl)carbamoyl]amino}-3-{[(2E)-3,7,11,15-tetramethylhexadec-2-en-1-yl]sulfanyl}propanoic acid], for which the IC50 is 20 nM in experiment [1]; 20 nM in experiment [2]; 190 nM in experiment [3]; above 10000 nM in experiment [4]; 900 nM in experiment [5]. Also, the “IL-8 Protein % inhibition” value in experiment [7] stood at 8%. Further, in experiment [6], the MIC was 6 µg/mL (≈ 11.7 µM).

In the case of `C/C(=C\CSC[C@H](NC(=O)N1CCC[C@H]1C(=O)O)C(=O)O)CCCC(C)CCCC(C)CCCC(C)C` (stereo partly drawn) [Compound E], the IC50 in experiment [3] is 11200 nM; in experiment [4], 1400 nM; in experiment [5] it was 4100 nM. In addition, the “IL-8 Protein % inhibition” value in experiment [7] turned out to be 67%. Also, in experiment [6], the MIC was determined as 5 µg/mL (≈ 9.25 µM).

Turning to `C/C(=C\CSCC(NC(=O)N(CC(=O)O)CC(=O)O)C(=O)O)CCCC(C)CCCC(C)CCCC(C)C` (stereo not drawn) [Compound G], the figures for the IC50 in experiment [3], in experiment [4] and in experiment [5] were 3080 nM, above 10000 nM and 3300 nM, respectively. Besides, the “IL-8 Protein % inhibition” value in experiment [7] turned out to be 74%. In experiment [6], the minimum inhibitory concentration (MIC) stood at 4 µg/mL (≈ 7.16 µM).

As for `C/C(=C\CSC[C@H](NC(=O)COCC(=O)O)C(=O)O)CCCC(C)CCCC(C)CCCC(C)C` (stereo partly drawn) [Compound T], the IC50 in experiment [1] was 10 nM; in experiment [2], 30 nM; in experiment [3], 50 nM; in experiment [4], above 10000 nM; in experiment [5] it was 100 nM. Moreover, the MIC in experiment [6] was found to be 22 µg/mL (≈ 42.7 µM).
